The subject of one test is CL1-5-derived tumors. Briefly: In vivo tumor homing, phage titers recovered from tumor and organs. Set-up: species or system SCID mice. As to conditions: for effect of co-injected peptide on recovery of PC5-2 from tumor mass: co-injection of 100 μg peptide. The protocol: (§1) To investigate the targeting ability of PC5-2 in vivo, phages were injected into the tail vein of mice bearing CL1-5-derived tumors and recovered after perfusion. SCID mice were injected subcutaneously into the dorsolateral flank with 1×10^7 cancer cells. The mice bearing size-matched lung cancer-derived tumor (tumor sizes about 500 mm3) were injected with targeting phage or control phage through the tail vein. Eight minutes after injection, the mice were treated with diethyl ether to drive them into deep anesthesia. Then the mice were perfused with 50 ml PBS to wash unbound phage. The control organs (brain, heart, and lung) and tumor mass were removed, weighed, and washed three times with cold PBS-PI (protease inhibitor cocktail tablet; Roche, Germany). The organ and tumor samples were homogenized. Then, the phage bound to the tumor mass or control organs were rescued by adding 0.5 ml ER2738 bacterial for 30 minutes at 37° C. The eluted phage particles were titered on agar plates in the presence of 1 mg/L of IPTG/X-Gal. In peptide competitive inhibition experiments, the phages were co-injected with 100 μg of synthetic peptide. We also used the control peptide. The organs and tumor masses were fixed in Bouin's solution for 2 h. After fixation, the samples were embedded in paraffin blocks. The paraffin sections were deparaffinized, rehydrated and subjected to immunostaining using M13 monoclonal antibody, as mentioned above.

The test system of test [1] is CL1-5 cells. The test is described as follows: Flow cytometry of phage-bound cells. The format is cell-based, human. To be noted: peptide competitive inhibition. As to the method:
Furthermore, to investigate the target molecule expressed on the cell surface of CL1-5, we measured PC5-2-bound cells using flow cytometry. Lung and other cancer cell lines were cultured overnight and then suspended in PBS containing 50 mM EDTA and blocked with blocking buffer at 4° C. for 30 minutes. The cells were washed 2 times with flow buffer (PBS containing 1% fetal bovine serum). The cells were incubated with phages or FITC-labeled peptide. For the peptide competitive inhibition assay, the phages were mixed with different concentrations of synthetic peptides and the mixture was incubated with the cells. After washing two times with cold flow buffer, the phage-bound cells were incubated with anti-M13 monoclonal antibodies at 4° C. for 1 h and then treated with FITC-conjugated goat anti-mouse IgG antibody. The cells were washed two times with cold flow buffer and then applied to a flow cytometer (Becton Dickinson).

The next test deals with NSCLC xenografts. The test is described as follows: In vivo tissue distribution of phage by immunostaining. As to conditions: in vivo homing. Set-up: species or system SCID mice. As to the method:
as §1, with “The paraffin sections were deparaffinized, rehydrated and subjected to immunostaining using M13 monoclonal antibody, as mentioned above.” left out

Test [2] has as its system CL1-5 cells. The test is described as follows: Peptide-competitive inhibition assay by immunofluorescent staining. The test is classed as cell-based, human. The protocol: (§2) To investigate whether the synthetic peptide and the selected phage clone competed for the same binding site, a peptide-competitive inhibition assay was performed by immunofluorescent staining. Targeting peptide TDSILRSYDWTY (SP5-2) [SEQ ID NO: 2] and control peptide (RLLDTNRPLLPY) [SEQ ID NO: 22] were synthesized and purified by reverse-phase high-performance liquid chromatography to >95% purity by Invitrogene, Inc. (CA, USA). Conjugation of these peptides with FITC or biotin was performed by adding FITC or biotin to the peptide NH2 terminus by the same company.
Phages were mixed with different concentrations of synthetic peptides and incubated with cells at 4° C. for 1 h. The slides were further incubated with mouse anti-M13 monoclonal antibody (Amersham Biosciences, Uppsala, Sweden), followed by incubation with FITC-labeled goat anti-mouse antibody (Jackson ImmunoResearch). The slides were washed and mounted with mounting medium (Vector, Calif., USA). Then the slides were examined under a Leica Universal microscope. The images were merged by SimplePCI (C-IMAGING, PA, USA) software.

Another test has as its system H460 cells. The test is described as follows: Peptide-binding assay with FITC-labeled peptide, immunofluorescent staining. The format is cell-based, human. As to the method:
as §2

The subject of a further test is PC13 cells. The test is described as above. The format is cell-based, human. As to the method: as §2
For another test, the system named is A549 cells. The test is described as above. The test is classed as cell-based, human. The protocol:
as §2

The subject of test [3] is CL1-5 cells. The test is described as above. The test is classed as cell-based, human. As to the method: as §2
The test system of the next test is H23 cells. The description is as above. The format is cell-based, human. As to the method:
as §2

Where no end group is shown, it is not given here. The star is where a group is joined. FITC = O=C1OC2(c3ccc(O)cc3Oc3cc(O)ccc32)c2ccc(NC(=S)*)cc21

On to TDSILRSYDWTY [SP5-2], for which, in the test with CL1-5-derived tumors, the “effect of co-injected peptide on recovery of PC5-2 from tumor mass” value is given as “markedly inhibited”. For the same substance, in the test with CL1-5-derived tumors (co-injection of one hundred micrograms of peptide), the “inhibition of PC5-2 binding to tumor mass” value was found to be 92%. In addition, the “effect of peptide on phage bound to CL1-5 cells” value in the test with CL1-5 cells [1] is recorded as “completely inhibited”. Also, in the test with NSCLC xenografts, the “effect of peptide on targeting of PC5-2 to NSCLC xenograft” value was “inhibited”. Also, the “effect of synthetic peptide on binding of PC5-2 phage to CL1-5 cells” value in the test on CL1-5 cells [2] is recorded as “inhibited”. The “peptide concentration able to inhibit the PC5-2 binding activity completely” value with CL1-5 cells [2] (CL1-5) amounted to 27 µg/mL.

For the substance “FITC-labeled control peptide: control peptide RLLDTNRPLLPY with FITC at the NH2 terminus ({FITC}-RLLDTNRPLLPY)”, the “binding of FITC-labeled peptide to cells” value with H460 cells, with PC13 cells, in the test with A549 cells, in the test on CL1-5 cells [3] and in the test with H23 cells was “no such binding activity” each time.

For RLLDTNRPLLPY [control peptide], in the test on CL1-5-derived tumors, the “effect of co-injected peptide on recovery of PC5-2 from tumor mass” value was “no such inhibitory effect”. The “effect of synthetic peptide on binding of PC5-2 phage to CL1-5 cells” value in the test on CL1-5 cells [2] is “no such effect”.

The values are drawn from US8415453B2, “Lung cancer-targeted peptides and applications thereof” (Academia Sinica, priority 2007, dated 2013).
